Read-outs that look alike come from different tables or passages of the source.
Experiments:
Experiment in all cases: KINOMEscan ScanTK
Assay type in all cases: binding
ABL2 = molecular target: T1, ABL2 (Homo sapiens, UniProt P42684)
T1 construct: purchased Eurofins DiscoverX KINOMEscan (scanTK)

ALK = molecular target: T2, ALK (Homo sapiens, UniProt Q9UM73)
T2 construct: purchased Eurofins DiscoverX KINOMEscan (scanTK)

ALK(L1196M) = molecular target: T3, ALK(L1196M) (Homo sapiens, UniProt Q9UM73, L1196M)
T3 construct: purchased Eurofins DiscoverX KINOMEscan (scanTK)
T3 sequence (Q9UM73 19-1620 L1196M): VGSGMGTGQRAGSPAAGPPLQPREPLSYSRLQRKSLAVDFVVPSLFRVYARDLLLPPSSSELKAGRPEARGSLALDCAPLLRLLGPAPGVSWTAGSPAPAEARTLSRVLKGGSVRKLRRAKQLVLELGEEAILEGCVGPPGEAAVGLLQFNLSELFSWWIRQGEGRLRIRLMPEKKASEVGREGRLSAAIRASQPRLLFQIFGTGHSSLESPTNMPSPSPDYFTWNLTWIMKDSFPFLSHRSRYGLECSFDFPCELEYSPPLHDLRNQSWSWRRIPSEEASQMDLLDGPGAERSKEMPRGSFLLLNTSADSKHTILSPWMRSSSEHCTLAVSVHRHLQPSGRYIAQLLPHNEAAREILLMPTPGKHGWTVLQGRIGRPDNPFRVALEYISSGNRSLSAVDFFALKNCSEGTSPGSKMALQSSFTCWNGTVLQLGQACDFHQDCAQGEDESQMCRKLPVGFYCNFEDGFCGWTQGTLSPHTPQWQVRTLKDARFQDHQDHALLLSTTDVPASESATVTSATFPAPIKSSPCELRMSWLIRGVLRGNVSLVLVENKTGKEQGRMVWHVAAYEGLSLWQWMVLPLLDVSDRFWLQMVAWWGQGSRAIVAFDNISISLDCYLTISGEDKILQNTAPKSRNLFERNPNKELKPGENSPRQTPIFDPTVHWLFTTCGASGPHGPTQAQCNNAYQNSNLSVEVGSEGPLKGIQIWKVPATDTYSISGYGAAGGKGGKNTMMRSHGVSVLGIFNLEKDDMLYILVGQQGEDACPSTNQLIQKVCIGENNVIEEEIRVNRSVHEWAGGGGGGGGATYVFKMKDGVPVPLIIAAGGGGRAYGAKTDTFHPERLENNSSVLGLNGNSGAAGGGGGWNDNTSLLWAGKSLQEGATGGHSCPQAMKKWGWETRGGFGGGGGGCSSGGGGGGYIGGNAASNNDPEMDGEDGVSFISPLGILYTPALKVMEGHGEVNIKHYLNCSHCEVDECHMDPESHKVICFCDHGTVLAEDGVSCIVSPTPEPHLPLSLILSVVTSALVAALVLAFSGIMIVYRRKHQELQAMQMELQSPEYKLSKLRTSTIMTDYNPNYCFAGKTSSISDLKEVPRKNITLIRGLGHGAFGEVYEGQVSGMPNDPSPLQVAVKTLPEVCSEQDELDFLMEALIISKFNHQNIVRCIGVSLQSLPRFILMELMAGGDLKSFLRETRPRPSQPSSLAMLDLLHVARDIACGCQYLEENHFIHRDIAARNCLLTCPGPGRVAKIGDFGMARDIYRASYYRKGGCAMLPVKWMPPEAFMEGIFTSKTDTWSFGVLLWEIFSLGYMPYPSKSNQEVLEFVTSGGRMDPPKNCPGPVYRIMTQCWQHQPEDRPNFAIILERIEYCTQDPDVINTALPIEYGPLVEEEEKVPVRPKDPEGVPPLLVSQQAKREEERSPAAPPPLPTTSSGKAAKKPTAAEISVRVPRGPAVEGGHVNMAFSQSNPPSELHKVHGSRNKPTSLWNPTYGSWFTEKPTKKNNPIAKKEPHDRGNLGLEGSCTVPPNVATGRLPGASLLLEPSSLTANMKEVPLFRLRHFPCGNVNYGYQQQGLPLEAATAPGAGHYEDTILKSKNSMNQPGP

CSF1R = molecular target: T4, CSF1R (Homo sapiens, UniProt P07333)
T4 construct: purchased Eurofins DiscoverX KINOMEscan (scanTK)
T4 sequence (P07333 20-972): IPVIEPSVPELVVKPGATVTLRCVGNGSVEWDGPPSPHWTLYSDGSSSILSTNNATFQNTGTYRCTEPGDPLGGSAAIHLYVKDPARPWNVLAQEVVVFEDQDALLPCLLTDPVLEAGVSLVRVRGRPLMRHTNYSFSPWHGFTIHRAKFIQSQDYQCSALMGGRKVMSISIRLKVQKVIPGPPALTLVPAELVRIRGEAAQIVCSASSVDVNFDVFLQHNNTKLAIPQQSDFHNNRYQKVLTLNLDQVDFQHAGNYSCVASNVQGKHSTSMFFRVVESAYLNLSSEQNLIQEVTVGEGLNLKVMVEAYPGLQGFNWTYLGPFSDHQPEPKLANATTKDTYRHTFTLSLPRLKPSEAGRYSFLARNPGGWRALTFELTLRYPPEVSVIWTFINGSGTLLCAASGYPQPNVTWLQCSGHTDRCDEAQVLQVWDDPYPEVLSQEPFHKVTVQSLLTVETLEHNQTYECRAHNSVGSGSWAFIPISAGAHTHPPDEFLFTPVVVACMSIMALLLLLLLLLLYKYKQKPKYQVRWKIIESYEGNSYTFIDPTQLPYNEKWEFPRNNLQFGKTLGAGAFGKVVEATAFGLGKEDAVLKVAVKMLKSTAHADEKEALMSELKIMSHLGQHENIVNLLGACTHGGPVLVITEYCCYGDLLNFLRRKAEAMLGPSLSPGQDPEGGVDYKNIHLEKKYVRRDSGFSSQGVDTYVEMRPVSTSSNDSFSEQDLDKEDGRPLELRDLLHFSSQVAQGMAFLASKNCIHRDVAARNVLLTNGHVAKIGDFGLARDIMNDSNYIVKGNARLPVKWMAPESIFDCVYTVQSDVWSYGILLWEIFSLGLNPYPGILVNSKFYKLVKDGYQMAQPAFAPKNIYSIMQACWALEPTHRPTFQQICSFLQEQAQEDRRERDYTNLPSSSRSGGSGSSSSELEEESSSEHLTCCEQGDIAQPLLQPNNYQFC

EGFR(L747-T751del,Sins) = system: EGFR(L747-T751del,Sins)
FES = molecular target: T5, FES (Homo sapiens, UniProt P07332)
T5 construct: purchased Eurofins DiscoverX KINOMEscan (scanTK)

FGFR3 = molecular target: T6, FGFR3 (Homo sapiens, UniProt P22607)
T6 construct: purchased Eurofins DiscoverX KINOMEscan (scanTK)
T6 sequence (P22607 23-806): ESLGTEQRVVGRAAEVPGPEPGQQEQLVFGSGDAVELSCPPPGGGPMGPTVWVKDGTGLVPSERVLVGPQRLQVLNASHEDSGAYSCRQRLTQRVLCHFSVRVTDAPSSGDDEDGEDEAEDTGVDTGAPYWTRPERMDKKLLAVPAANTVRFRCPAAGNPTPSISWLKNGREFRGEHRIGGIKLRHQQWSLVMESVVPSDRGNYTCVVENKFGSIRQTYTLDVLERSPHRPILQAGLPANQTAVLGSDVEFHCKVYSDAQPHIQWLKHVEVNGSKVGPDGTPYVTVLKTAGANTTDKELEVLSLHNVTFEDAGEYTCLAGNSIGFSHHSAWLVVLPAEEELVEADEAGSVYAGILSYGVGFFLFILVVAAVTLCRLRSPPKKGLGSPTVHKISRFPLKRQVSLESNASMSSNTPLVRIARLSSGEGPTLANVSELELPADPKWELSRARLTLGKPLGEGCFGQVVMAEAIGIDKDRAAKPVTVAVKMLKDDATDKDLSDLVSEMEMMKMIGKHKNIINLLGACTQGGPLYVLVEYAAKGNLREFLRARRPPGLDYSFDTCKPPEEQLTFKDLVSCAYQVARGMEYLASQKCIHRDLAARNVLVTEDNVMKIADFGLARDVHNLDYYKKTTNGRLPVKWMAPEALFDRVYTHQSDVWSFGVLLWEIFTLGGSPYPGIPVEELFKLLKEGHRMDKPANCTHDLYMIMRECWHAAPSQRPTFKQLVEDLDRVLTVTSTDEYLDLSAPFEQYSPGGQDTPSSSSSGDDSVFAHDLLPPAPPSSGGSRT

FGFR3(G697C) = molecular target: T7, FGFR3(G697C) (Homo sapiens, UniProt P22607, G697C)
T7 construct: purchased Eurofins DiscoverX KINOMEscan (scanTK)
T7 sequence (P22607 23-806 G697C): as the sequence (P22607 23-806) above, with G675C counted along it

FLT3(D835V) = molecular target: T8, FLT3(D835V) (Homo sapiens, UniProt P36888, D835V)
T8 construct: purchased Eurofins DiscoverX KINOMEscan (scanTK)
T8 sequence (P36888 27-993 D835V): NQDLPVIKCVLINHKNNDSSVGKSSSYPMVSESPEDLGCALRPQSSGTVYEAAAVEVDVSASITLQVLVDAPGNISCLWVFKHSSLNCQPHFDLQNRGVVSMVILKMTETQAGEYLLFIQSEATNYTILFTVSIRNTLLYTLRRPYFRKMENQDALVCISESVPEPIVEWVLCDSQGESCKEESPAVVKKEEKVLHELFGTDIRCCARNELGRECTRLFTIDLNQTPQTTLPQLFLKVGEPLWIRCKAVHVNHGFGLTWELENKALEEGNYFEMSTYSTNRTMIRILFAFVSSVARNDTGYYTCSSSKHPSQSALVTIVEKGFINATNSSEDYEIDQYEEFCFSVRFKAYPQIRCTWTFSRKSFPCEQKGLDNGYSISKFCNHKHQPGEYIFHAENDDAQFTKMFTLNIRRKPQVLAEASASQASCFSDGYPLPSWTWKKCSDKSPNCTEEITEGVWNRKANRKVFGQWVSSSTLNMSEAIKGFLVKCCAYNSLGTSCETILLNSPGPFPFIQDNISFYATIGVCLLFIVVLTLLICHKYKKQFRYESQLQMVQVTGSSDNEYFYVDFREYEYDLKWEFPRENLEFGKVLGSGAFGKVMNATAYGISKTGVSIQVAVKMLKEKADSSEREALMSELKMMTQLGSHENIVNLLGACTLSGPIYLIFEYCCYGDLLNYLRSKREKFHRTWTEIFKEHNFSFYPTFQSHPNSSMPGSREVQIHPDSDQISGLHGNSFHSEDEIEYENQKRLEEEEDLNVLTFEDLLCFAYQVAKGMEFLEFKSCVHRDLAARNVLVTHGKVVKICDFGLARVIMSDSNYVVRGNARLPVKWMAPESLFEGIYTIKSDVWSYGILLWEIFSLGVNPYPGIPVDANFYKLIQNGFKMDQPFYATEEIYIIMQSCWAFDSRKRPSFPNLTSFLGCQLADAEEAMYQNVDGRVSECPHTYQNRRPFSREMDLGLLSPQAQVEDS

FLT3(ITD,F691L) = system: FLT3(ITD,F691L)
KIT(V559D,T670I) = molecular target: T9, KIT(V559D,T670I) (Homo sapiens, UniProt P10721, T670I/V559D)
T9 construct: purchased Eurofins DiscoverX KINOMEscan (scanTK)

LTK = molecular target: T10, LTK (Homo sapiens, UniProt P29376)
T10 construct: purchased Eurofins DiscoverX KINOMEscan (scanTK)

MET(Y1235D) = molecular target: T11, MET(Y1235D) (Homo sapiens, UniProt P08581, Y1235D)
T11 construct: purchased Eurofins DiscoverX KINOMEscan (scanTK)

PYK2 = molecular target: T12, PYK2 (Homo sapiens, UniProt Q14289)
T12 construct: purchased Eurofins DiscoverX KINOMEscan (scanTK)

[1] = molecular target: T13, TYK2(JH1domain-catalytic) (Homo sapiens, UniProt P29597)
T13 construct: TYK2(JH1domain-catalytic); purchased Eurofins DiscoverX KINOMEscan (scanTK)
T13 sequence (P29597 888-1187 limits assumed): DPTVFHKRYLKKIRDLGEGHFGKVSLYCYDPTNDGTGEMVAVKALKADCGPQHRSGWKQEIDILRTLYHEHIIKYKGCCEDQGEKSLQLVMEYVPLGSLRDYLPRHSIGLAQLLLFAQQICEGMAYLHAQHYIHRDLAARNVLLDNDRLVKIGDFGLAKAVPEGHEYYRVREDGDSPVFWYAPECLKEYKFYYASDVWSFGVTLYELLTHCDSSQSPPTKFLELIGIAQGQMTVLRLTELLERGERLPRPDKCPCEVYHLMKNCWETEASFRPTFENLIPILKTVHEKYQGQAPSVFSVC

T2 sequence (Q9UM73 19-1620): as the sequence (Q9UM73 19-1620 L1196M) above, with M1178L counted along it
T1 sequence (P42684 whole entry): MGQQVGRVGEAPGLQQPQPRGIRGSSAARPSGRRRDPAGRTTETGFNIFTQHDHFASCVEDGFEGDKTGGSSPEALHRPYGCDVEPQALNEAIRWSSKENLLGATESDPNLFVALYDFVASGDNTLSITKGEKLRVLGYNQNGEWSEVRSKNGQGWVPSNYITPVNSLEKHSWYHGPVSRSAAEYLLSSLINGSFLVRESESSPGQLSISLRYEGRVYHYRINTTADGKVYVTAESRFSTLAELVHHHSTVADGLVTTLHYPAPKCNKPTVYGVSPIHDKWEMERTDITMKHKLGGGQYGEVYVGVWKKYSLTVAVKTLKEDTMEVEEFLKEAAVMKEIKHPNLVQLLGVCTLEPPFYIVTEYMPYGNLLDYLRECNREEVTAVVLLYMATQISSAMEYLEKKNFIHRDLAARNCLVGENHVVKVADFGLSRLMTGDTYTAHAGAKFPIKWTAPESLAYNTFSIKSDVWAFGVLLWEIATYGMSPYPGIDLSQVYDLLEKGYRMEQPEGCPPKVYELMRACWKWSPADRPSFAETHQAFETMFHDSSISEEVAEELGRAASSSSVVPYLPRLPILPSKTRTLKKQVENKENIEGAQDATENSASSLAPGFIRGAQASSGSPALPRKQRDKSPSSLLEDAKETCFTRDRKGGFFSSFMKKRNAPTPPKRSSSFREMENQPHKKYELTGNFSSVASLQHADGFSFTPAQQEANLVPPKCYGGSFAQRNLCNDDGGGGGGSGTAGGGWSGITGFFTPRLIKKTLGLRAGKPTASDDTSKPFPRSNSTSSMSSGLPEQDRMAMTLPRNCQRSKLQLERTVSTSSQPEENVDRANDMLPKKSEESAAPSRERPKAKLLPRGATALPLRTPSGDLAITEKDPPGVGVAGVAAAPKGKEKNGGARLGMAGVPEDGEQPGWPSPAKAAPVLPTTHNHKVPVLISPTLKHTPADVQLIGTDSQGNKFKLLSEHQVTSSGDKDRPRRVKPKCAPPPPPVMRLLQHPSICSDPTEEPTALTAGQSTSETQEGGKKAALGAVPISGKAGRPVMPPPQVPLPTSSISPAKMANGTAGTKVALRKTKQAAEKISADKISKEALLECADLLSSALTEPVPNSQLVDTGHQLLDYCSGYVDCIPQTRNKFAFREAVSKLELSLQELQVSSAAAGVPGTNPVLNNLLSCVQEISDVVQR

Structure (SMILES): CNC(=O)c1cnc(S(C)(=O)=O)nc1N1CCCC(n2nc(-c3ccc(Oc4ccccc4)cc3)c3c(N)ncnc32)C1 (centres unmarked) [Compound 8d, 4-(3-(4-Amino-3-(4-phenoxyphenyl)-1H-pyrazolo[3,4-d]pyrimidin-1-yl)piperidin-1-yl)-N-methyl-2-(methylsulfonyl)pyrimidine-5-carboxamide]
- difference in %Control from reference compound Ib at 1 µM (ABL2; @1000nM): 48%
- remaining binding at 1 µM (ABL2; @1000nM, read-out: %Control): 89%
- remaining binding at 1 µM (ABL2; read-out: %Control @1000nM): 89%
- difference in %Control versus compound Ib at 1 µM (ALK; @1000nM): -11%
- remaining binding at 1 µM (ALK; @1000nM, read-out: %Control): 83%
- remaining binding at 1 µM (ALK; read-out: %Control @1000nM): 83%
- difference in % of control vs compound Ib at 1 µM (ALK(L1196M); @1000nM): -21%
- remaining binding at 1 µM (ALK(L1196M); @1000nM, read-out: %Control): 79%
- remaining binding at 1 µM (ALK(L1196M); read-out: %Control @1000nM): 79%
- difference in %Control versus compound Ib at 1 µM (CSF1R; @1000nM): 19%
- remaining binding at 1 µM (CSF1R; @1000nM, read-out: %Control): 99%
- remaining binding at 1 µM (CSF1R; read-out: %Control @1000nM): 99%
- %Control @1000nM (EGFR(L747-T751del,Sins)): 30%
- % difference (compound - Ib %Control) (EGFR(L747-T751del,Sins); @1000nM): 27.4%
- %Control (EGFR(L747-T751del,Sins); @1000nM): 30%
- difference in %Control versus compound Ib at 1 µM (FES; @1000nM): 0%
- remaining binding at 1 µM (FES; @1000nM, read-out: %Control): 100%
- remaining binding at 1 µM (FES; read-out: %Control @1000nM): 100%
- difference in %Control versus compound Ib at 1 µM (FGFR3; @1000nM): 51%
- remaining binding at 1 µM (FGFR3; @1000nM, read-out: %Control): 99%
- remaining binding at 1 µM (FGFR3; read-out: %Control @1000nM): 99%
- difference in %Control versus compound Ib at 1 µM (FGFR3(G697C); @1000nM): 47%
- remaining binding at 1 µM (FGFR3(G697C); @1000nM, read-out: %Control): 87%
- remaining binding at 1 µM (FGFR3(G697C); read-out: %Control @1000nM): 87%
- difference in %Control versus compound Ib at 1 µM (FLT3(D835V); @1000nM): 13.1%
- remaining binding at 1 µM (FLT3(D835V); @1000nM, read-out: %Control): 23%
- remaining binding at 1 µM (FLT3(D835V); read-out: %Control @1000nM): 23%
- %Control @1000nM (FLT3(ITD,F691L)): 100%
- % difference (compound - Ib %Control) (FLT3(ITD,F691L); @1000nM): 0%
- %Control (FLT3(ITD,F691L); @1000nM): 100%
- difference in %Control versus compound Ib at 1 µM (KIT(V559D,T670I); @1000nM): 11%
- remaining binding at 1 µM (KIT(V559D,T670I); @1000nM, read-out: %Control): 79%
- remaining binding at 1 µM (KIT(V559D,T670I); read-out: %Control @1000nM): 79%
- remaining binding at 1 µM (LTK; @1000nM, read-out: %Control): 100%
- remaining binding at 1 µM (LTK; read-out: %Control @1000nM): 100%
- remaining binding at 1 µM (MET(Y1235D); @1000nM, read-out: %Control): 91%
- remaining binding at 1 µM (MET(Y1235D); read-out: %Control @1000nM): 91%
- remaining binding at 1 µM (PYK2; @1000nM, read-out: %Control): 100%
- remaining binding at 1 µM (PYK2; read-out: %Control @1000nM): 100%
- remaining binding at 1 µM ([1]; @1000nM, read-out: %Control): 100%
- remaining binding at 1 µM ([1]; read-out: %Control @1000nM): 100%

Reference: article PMC11345841, “Exploring 2-Sulfonylpyrimidine Warheads as Acrylamide Surrogates for Targeted Covalent Inhibition: A BTK Story” (Journal of Medicinal Chemistry, 2024)
